# Data from patent publication US20120028897A1, “METHODS AND COMPOSITIONS FOR THE TREATMENT OF FLUID RETENTION DISORDERS” (priority 2008, published 2012).
# Key:
# Format in all cases: in vivo, rat
# [1] = test system: anesthetized rats; test: Renal potassium excretion during and after iv peptide infusion in anesthetized rats
# Description: Rats were not fasted prior to clearance experiments and ranged in weight from 250-340 g at the time of study. Anesthesia was induced with an intraperitoneal injection of pentobarbital sodium (55 mg/kg BW) and maintained at a surgical plane by intermittent intravenous supplementation. Core temperature was maintained at 37° C. by a servo-controlled, heated operating table. Animals breathed spontaneously through a PE240 cannula inserted into the trachea. A jugular vein was catheterized with PE50 cannula tubing for intravenous infusion of isotonic saline containing FITC-labeled inulin (0.4% W/V, Sigma, St Louis Mo.) and two PE10 cannulae, one for supplemental anesthetic and the other for peptide infusions (described below in the experimental protocol section). The ureters were exposed through a midline ventral incision and cannulated with PE10 tubing about one cm from each kidney. Urine was collected over 20 min periods and the volume estimated by weight. A femoral artery was cannulated with PE50 tubing for continuous measurement of arterial blood pressure and intermittent blood samples (50 μl), taken at the mid point of each urine collection.
# (§1) Arterial blood pressure was measured with a pressure transducer connected to a cardiovascular analyzer (Model 50110, Stoelting Instruments Wood Dale, Ill.). Left renal blood flow was measured in some rats with a flow probe positioned on the left renal artery and connected to a blood flow monitor (model 1 PRB probe and model T420 monitor, Transonic Systems Inc. Ithaca N.Y.). Arterial pressure, heart rate, and renal blood flow were digitized with an A/D converter (Keithley instruments, Cleveland, Ohio Model KUSB 3100) for display and storage on a Windows-based personal computer using open layers data acquisition software (Dtx_Ez, Data Translation Inc, Marlboro, Mass.). Sodium and potassium concentrations in plasma and urine were measured by flame photometry (Model 943, Instrumentation Laboratory Co., Lexington Mass.). Glomerular filtration rate (GFR) was measured as the renal clearance rate of FITC-labeled inulin
# (§2) After post-surgical equilibration (−60 min) and three 20 min control clearance periods, huUgnA or B was infused into the jugular vein at 10 μl/min over a 60 min period, followed by a return to isotonic saline for the remainder of the experiment. The infused doses of huUgnA were 12, 25, 50, 100, or 200 nmol/kg BW in a total of 38 rats; huUgnB doses were 9, 18, 35, 70, and 140 nmol/kg BW in 35 rats. A UgnA mimetic, E. coli STh (ST-core), was infused into a third group of 32 rats at doses of 17, 32, 66, 133, and 266 nmol/kg. Renal excretory responses to these infusions were slow to develop and long lasting, so clearance periods were continued for 2-3 hr after the termination of the peptide infusion. This protracted time course limited protocols to one dose of one peptide in each rat. A control group of 10 rats received isotonic saline at 10 μl/min in place of the peptide infusion, but was otherwise treated in the same way as the experimental groups.
# Sodium and potassium excretion rates are expressed as absolute values (UNaV and UKV) or factored by filtered load to provide fractional excretion (FENa and FEK). Glomerular filtration rate (GFR) was equated with inulin clearance. The net natriuretic response to peptide infusions was assessed by summing total Na excretion during infusion and post-infusion collection periods in each rat after subtraction of corresponding mean values obtained from the control group. The cumulative net excretion obtained in this way provides a measure of the natriuretic response to each dose of peptide infused. Results from both kidneys were averaged for each rat before calculating group means±sem.
# Group comparisons were made with one way analysis of variance (ANOVA) using peptide doses as column variables. […]
# [2] = test system: anesthetized rats; test: Renal blood flow (flow probe on left renal artery)
# Description: as §1, §2
# [3] = test system: anesthetized rats; test: Glomerular filtration rate (FITC-inulin clearance) during and after iv peptide infusion
# Description: All rats received a continuous intravenous infusion (10 μl/min/100 g BW) of isotonic saline containing FITC-labeled inulin for measurement of inulin clearance. Uncongugated FITC label and small inulin polymers were removed from the inulin solution by overnight dialysis against isotonic saline (SpectraPor 6 dialysis membrane, 1 kDa cutoff-limit, Spectrum Laboratories, Rancho Domingo, Calif.). Undissolved particulates were removed from the solution by filtration through a […] filter before each experiment (Steriflip, Millipore Inc. Billerica, Mass.). At least one hr was allowed for equilibration before the start of urine collections, at which point plasma inulin concentration had stabilized at an average value of 30±3 μg/ml.
# as §1, §2
# This assay was based on the method described by Lorenz and Gruenstein. Urine samples were diluted with hepes-buffered saline (3, 5, 10, or 20 fold, based on urine flow) to neutralize the pH and bring the intensity of FITC emissions into detector range. Small volumes (3-5 μl) of diluted urine and undiluted plasma samples were drawn into constant bore capillary tubes (10 μl Microcap tubes, Drummond Scientific Company, Broomall Pa.) and sealed at each end with water-saturated mineral oil. FITC emission intensity was measured by imaging each sample at 10× magnification with an epifluorescence microscope (Axiovert S100TV, Carl Zeiss Inc. Thornwood, N.Y.) fitted with a CCD camera (Orca II, Hamamatsu Inc. Bridgewater, N.J.) controlled by Metamorph imaging software (Molecular Devices, Sunnyvale, Calif.). Fluorescence intensities were measured as mean pixel intensity obtained from a consistent central region of each sample during a 25 or 500 msec exposure for urine and plasma, respectively. Background intensities were measured in the same way using bladder urine and tail vein plasma collected from the same rat before the beginning of inulin infusion. Inulin concentrations in plasma and urine samples were calculated from a standard curve prepared from the infusion solution used in each experiment. […]
smiles,measurement,setting,value
"CC(C)C[C@H](NC(=O)[C@@H]1CSSC[C@@H]2NC(=O)[C@H](CC(C)C)NC(=O)[C@H](CCC(=O)O)NC(=O)[C@@H](NC(=O)[C@H](CC(=O)O)NC(=O)[C@H](CC(=O)O)NC(=O)[C@@H](N)CC(N)=O)CSSC[C@H](NC(=O)[C@H](C)NC(=O)[C@H](C(C)C)NC(=O)[C@H](CC(N)=O)NC(=O)[C@H](C(C)C)NC2=O)C(=O)N[C@@H]([C@@H](C)O)C(=O)NCC(=O)N1)C(=O)O (single isomer, unassigned) [huUgnA, Asn Asp Asp Cys Glu Leu Cys Val Asn Val Ala Cys Thr Gly Cys Leu, reference compound]",increase in UKV during or after infusion,[1]; any dose tested,no statistically significant increases
same,FEK (fractional potassium excretion),"[1]; huUgnA 12 nmol, Infuse",29.8 ± 3.6 % of filtered
same,UKV (potassium excretion),"[1]; huUgnA 12 nmol, Infusion",1097 ± 54 nEq/min/g KW
same,FEK (fractional potassium excretion),"[1]; huUgnA 12 nmol, Post-infuse",34.9 ± 2.7 % of filtered
same,UKV (potassium excretion),"[1]; huUgnA 12 nmol, Post-infuse",1299 ± 51 nEq/min/g KW
same,FEK (fractional potassium excretion),"[1]; huUgnA 12 nmol, Pre-infuse",18.8 ± 2.3 % of filtered
same,UKV (potassium excretion),"[1]; huUgnA 12 nmol, Pre-infuse",709 ± 74 nEq/min/g KW
same,FEK (fractional potassium excretion),"[1]; huUgnA 25 nmol, Infuse",40.7 ± 3.5 % of filtered
same,UKV (potassium excretion),"[1]; huUgnA 25 nmol, Infusion",1292 ± 80 nEq/min/g KW
same,FEK (fractional potassium excretion),"[1]; huUgnA 25 nmol, Post-infuse",46.5 ± 3.8 % of filtered
same,UKV (potassium excretion),"[1]; huUgnA 25 nmol, Post-infuse",1309 ± 68 nEq/min/g KW
same,FEK (fractional potassium excretion),"[1]; huUgnA 25 nmol, Pre-infuse",25.6 ± 2.4 % of filtered
same,UKV (potassium excretion),"[1]; huUgnA 25 nmol, Pre-infuse",780 ± 69 nEq/min/g KW
same,FEK (fractional potassium excretion),"[1]; huUgnA 50 nmol, Infuse",32.0 ± 2.7 % of filtered
same,UKV (potassium excretion),"[1]; huUgnA 50 nmol, Infusion",988 ± 66 nEq/min/g KW
same,FEK (fractional potassium excretion),"[1]; huUgnA 50 nmol, Post-infuse",36.3 ± 3.6 % of filtered
same,UKV (potassium excretion),"[1]; huUgnA 50 nmol, Post-infuse",1180 ± 57 nEq/min/g KW
same,FEK (fractional potassium excretion),"[1]; huUgnA 50 nmol, Pre-infuse",20.8 ± 2.1 % of filtered
same,UKV (potassium excretion),"[1]; huUgnA 50 nmol, Pre-infuse",722 ± 52 nEq/min/g KW
same,FEK (fractional potassium excretion),"[1]; huUgnA 100 nmol, Infuse",28.0 ± 3.5 % of filtered
same,UKV (potassium excretion),"[1]; huUgnA 100 nmol, Infusion",878 ± 60 nEq/min/g KW
same,FEK (fractional potassium excretion),"[1]; huUgnA 100 nmol, Post-infuse",29.9 ± 2.9 % of filtered
same,UKV (potassium excretion),"[1]; huUgnA 100 nmol, Post-infuse",970 ± 72 nEq/min/g KW
same,FEK (fractional potassium excretion),"[1]; huUgnA 100 nmol, Pre-infuse",19.3 ± 2.5 % of filtered
same,UKV (potassium excretion),"[1]; huUgnA 100 nmol, Pre-infuse",602 ± 51 nEq/min/g KW
same,FEK (fractional potassium excretion),"[1]; huUgnA 200 nmol, Infuse",40.8 ± 7.7 % of filtered
same,UKV (potassium excretion),"[1]; huUgnA 200 nmol, Infusion",1203 ± 161 nEq/min/g KW
same,UKV (potassium excretion),"[1]; huUgnA 200 nmol, Post-infuse",1380 ± 73 nEq/min/g KW
same,FEK (fractional potassium excretion),"[1]; huUgnA 200 nmol, Post-infuse, *** p<0.005 vs time control",57.5 ± 6.7*** % of filtered
same,FEK (fractional potassium excretion),"[1]; huUgnA 200 nmol, Pre-infuse",27.7 ± 5.9 % of filtered
same,UKV (potassium excretion),"[1]; huUgnA 200 nmol, Pre-infuse",860 ± 118 nEq/min/g KW
same,FEK vs control,"[1]; post infusion period, only after the highest doses",increased over control levels
same,Renal blood flow (RBF),"[2]; 25 nmol UgnA, before (first value of change), n=4",2.7+0.3 ml/min/g KW
same,Renal blood flow (RBF),"[2]; after 25 nmol UgnA, p<0.001, n=4",3.2+0.1 ml/min/g KW
same,GFR (glomerular filtration rate),"[3]; huUgnA 12 nmol, Infusion",869 ± 64 μl/min/g KW
same,GFR (glomerular filtration rate),"[3]; huUgnA 12 nmol, Post-infuse",923 ± 66 μl/min/g KW
same,GFR (glomerular filtration rate),"[3]; huUgnA 12 nmol, Pre-infuse",895 ± 51 μl/min/g KW
same,GFR (glomerular filtration rate),"[3]; huUgnA 25 nmol, Infusion",886 ± 66 μl/min/g KW
same,GFR (glomerular filtration rate),"[3]; huUgnA 25 nmol, Post-infuse",823 ± 49 μl/min/g KW
same,GFR (glomerular filtration rate),"[3]; huUgnA 25 nmol, Pre-infuse",820 ± 40 μl/min/g KW
same,GFR (glomerular filtration rate),"[3]; huUgnA 50 nmol, Infusion",817 ± 53 μl/min/g KW
same,GFR (glomerular filtration rate),"[3]; huUgnA 50 nmol, Post-infuse",869 ± 49 μl/min/g KW
same,GFR (glomerular filtration rate),"[3]; huUgnA 50 nmol, Pre-infuse",858 ± 52 μl/min/g KW
same,GFR (glomerular filtration rate),"[3]; huUgnA 100 nmol, Infusion",858 ± 55 μl/min/g KW
same,GFR (glomerular filtration rate),"[3]; huUgnA 100 nmol, Post-infuse",906 ± 38 μl/min/g KW
same,GFR (glomerular filtration rate),"[3]; huUgnA 100 nmol, Pre-infuse",807 ± 62 μl/min/g KW
same,GFR (glomerular filtration rate),"[3]; huUgnA 200 nmol, Infusion",827 ± 61 μl/min/g KW
same,GFR (glomerular filtration rate),"[3]; huUgnA 200 nmol, Post-infuse",849 ± 24 μl/min/g KW
same,GFR (glomerular filtration rate),"[3]; huUgnA 200 nmol, Pre-infuse",857 ± 43 μl/min/g KW
